≈ marks a conversion by molar mass, not a printed value. Where two headings read alike, the source gives them in different places.
Columns and labels:
souris [1] = experiment: Antidepressant activity: inhibition of reserpine-induced ptosis in mice; format: in vivo; details: mouse, oral 200 mg/kg 90 min before reserpine 5 mg/kg i.p.; index 0 (maximum ptosis) to 6 (no ptosis)
Method: (§1) L'activité antidépressive a été déterminée dans le test de potentialisation de la toxicité de la yohimbine et dans le test de l'inhibition du ptosis induit par la réserpine.
(§2) On injecte par voie sous cutanée à des souris, lh avant l'administration par voie orale du produit à tester, une dose non léthale de yohimbine soit 15 mg/kg. Le COR3760 administré à la dose de 100 mg/kg entraine 80% de mortalité dans ces conditions. Des souris reçoivent par voie orale le produit à tester 90 mn avant l'injection par voie intrapéritonéale de 5 mg/kg de réserpine solubilisée. On cote le ptosis selon un index allant de 0 à 6, la cote 0 correspondant à un ptosis maximum et la cote 6 à l'absence de ptosis. Les COR3760 et COR4011 conduisent dans les conditions de l'expérience à un ptosis coté à 4 pour une dose de respectivement 200 et 50 mg/kg.

souris [2] = experiment: Antidepressant activity: potentiation of yohimbine toxicity in mice; format: in vivo; details: mouse, yohimbine 15 mg/kg s.c. (non-lethal dose), test product oral 100 mg/kg
Method: as §1, §2

[3] = test system: souris soumis à une surcharge saline; experiment: Diuretic activity in mice given a saline overload, oral; format: in vivo; details: mouse
Method: (§3) L'activité diurétique a été déterminée sur plusieurs modèles expérimentaux. Chez le rat soumis à une surcharge hydrique, administrés par voie orale à la dose de 20 mg/kg, le COR3760, le COR3789, le COR3792, le COR4002, le COR4003, le COR4009, le COR4010, le COR4012 et le COR4014 multiplient l'excrétion urinaire du sodium par respectivement un facteur 2,9 - 3,1 - 5,9 - 2,6 - 7,2 - 3,5 - 3,8 - 2,9 - 2,4. Administrés à la dose de 10 mg/kg, dans les mêmes conditions, les COR3760, COR3789, COR3792, COR4003 et COR4010 multiplient l'excrétion sodique par respectivement 2,3 - 2,9 - 2,8 - 2,4 et 2,5. La spironolactone multiplie quant à elle l'excrétion sodique d'un facteur 3,6 à la dose de 20 mg/kg. Administré à la dose de 5 mg/kg dans les mêmes conditions, le COR3792 multiplie l'excrétion sodique par 3,3. Administré par voie orale chez le rat ou la souris soumis à une surcharge saline, le COR3760 augmente l'excrétion urinaire volumétrique mesurée à la sixième heure de respectivement 49, 119 et 134% chez la souris et 28, 84 et 116% chez le rat après administration de 10, 20, et 40 mg/kg. Le COR3760 a été administré par voie orale au rat soumis à une surcharge hydrique et l'excrétion urinaire volumétrique, le sodium et le potassium excrétés ont été mesurés sur une période de 6 heures; ces paramètres ont varié de respectivement +17%, +102%, +165% à 10 mg/kg, +19%, +147%, +180% à 20 mg/kg et +36%, +415% et +239% à 40 mg/kg; le rapport Na/K passe de 0,56 chez les animaux témoins à 0,4 à 10 mg/kg, 0,49 à 20 mg/kg et 0, 8 à 40 mg/ kg. Au cours d'une seconde expérimentation, le COR3760 a entrainé des variations de +19%, +157%, +70% à 40 mg/kg, +19%, +319%, +90% à 60 mg/kg et +29%, +472% et +77% à 80 mg/kg; le rapport Na/K passe de 0,59 chez les animaux témoins à 0,88 à 40, 1,15 à 60 et 1,88 à 80 mg/kg.

[4] = test system: rat soumis à une surcharge saline; experiment: Diuretic activity in rats given a saline overload, oral; format: in vivo
Method: as §3

[5] = test system: rat soumis à une surcharge hydrique; experiment: Diuretic activity in rats given a water overload, oral; format: in vivo; details: rat, water overload, oral; for response vs control in vivo at 20 mg/kg: read-out: facteur multipliant l'excrétion urinaire du sodium
Method: as §3

[6] = test system: segments d'iléon de cobaye isolés; experiment: Anticholinergic activity: acetylcholine-induced contractions of isolated guinea pig ileum; details: Cavia porcellus; contractions induced by 0,1 microg/ml acetylcholine; read-out: concentration qui inhibe ces contractions de 80%
Text: L'activité anticholinergique a été appréciée par la mesure des contractions induites par 0,1 microg/ml d'acétylcholine sur des segments d'iléon de cobaye isolés. Les COR3760, COR3789, COR3792, COR4003, COR4008, COR4010, COR4014 utilisés respectivement aux concentrations de 50, 25, 25, 50, 25, 10, 25 microg/ml inhibent ces contractions de 80%.

souris [7] = experiment: Acute toxicity (mortality, LD50) in mice; format: in vivo; details: mouse
[8] = Acute toxicity (mortality, LD50) in mice; format: in vivo; details: in vivo; mouse, oral, in solution in Tween 20%; read-out: DL50 (the source's name)
[9] = test system: poumon de cobaye isolé perfusé; experiment: Bronchodilator activity: isolated perfused guinea pig lung contracted by methacholine; details: flow of Tyrode solution, lung contracted by 0,05 microg/ml methacholine; read-out: concentration qui augmente ce débit de 50%
Text: L'activité bronchodilatatrice a été déterminée in vitro par la mesure du débit d'une solution de Tyrode à travers un poumon de cobaye isolé perfusé, contracté par l'addition au fluide de perfusion de 0,05 microg/ml de méthacholine. Les COR3760, COR3789, COR3792, COR4003, COR4008, COR4010 et COR4014 utilisés respectivement aux concentrations de 50, 50, 100, 10, 50, 50 et 10 microg/ml augmentent ce débit de 50%. L'aminophylline entraine cette même activité à la concentration de 100 microg/ml.

[10] = test system: rat vigile spontanément hypertendu; experiment: Antihypertensive activity in conscious spontaneously hypertensive rats (indirect tail pressure); format: in vivo; details: SHR, oral, 100 mg/kg
Method: L'activité antihypertensive a été appréciée chez le rat vigile spontanément hypertendu. La pression artérielle est mesurée de façon indirecte sur la queue 2, 4, 6 heures après l'administration par voie orale du produit à tester. Pour le COR4009, administré à la dose de 100 mg/kg, la réduction de pression est respectivement de 8, 13, 13% à ces échéances.

souris [11] = experiment: Anticonvulsant activity: bicuculline-induced convulsions in mice; format: in vivo; details: mouse, i.p., 100 mg/kg
Method: L'activité anticonvulsivante est également déterminée dans le test des inhibitions des convulsions induites par la bicuculline. Des souris reçoivent par voie intrapéritonéale le produit à tester, puis 30 mn et 5 heures plus tard, deux injections séparées de 0,5 mg de bicuculline. […] Les résultats de ce test sont le reflet d'une activité gabaergique directe.

[12] = test system: rat Wistar soumis à une surcharge saline; experiment: Diuretic activity in selected Wistar rats given a saline overload (modified Wiebelhaus test); format: in vivo
Method: L'activité diurétique des produits selon l'invention a été également déterminée chez le rat Wistar soumis à une surcharge saline selon une modification du test décrit par Wiebelhaus et coll., Fed. Proc., 1960, 19, 364, en procédant à une sélection des animaux. A la dose de 20 mg/kg, les COR4003, COR4008, COR4009, COR4010, COR4011, COR4012, COR4014, COR4016, COR4021, COR4025 augmentent l'excrétion urinaire volumétrique mesurée au bout de 6 heures de respectivement 56, 54, 65, 95, 73, 54, 33, 40, 99 et 92 %. L'excrétion urinaire du sodium augmente de respectivement 56, 24, 42, 59, 43, 33, 29, 43, 31, 83, 26, 99, 40 % toujours à cette dose pour les COR4003, COR4008, COR4009, COR4010, COR4011, COR4012, COR4014, COR4016, COR4017, COR4021, COR4023, COR4025 et COR4026. Le rapport Na/K demeure la plupart du temps inchangé. Testé dans les mêmes conditions le furosémide, administré à la dose de 20 mg/kg entraine 63% d'augmentation de l'excrétion urinaire volumétrique et 53% d'augmentation de l'excrétion urinaire du sodium.

souris [13] = experiment: Anticonvulsant activity: maximal electroshock convulsions in mice; format: in vivo; details: mouse, oral, 100 mg/kg, one hour after administration
Text: L'activité anticonvulsivante est appréciée dans le test de la prévention des convulsions induites par des électrochocs d'intensité maximale.

[14] = test system: oreillette gauche de cobaye; experiment: Calcium antagonist activity: electrically stimulated guinea pig left atrium; details: 150 beats/min, low-calcium (0,6 mM) Tyrode solution; read-out: concentration qui inhibe de 50% l'augmentation de la force de contraction induite par l'addition de 0,6 mM de calcium
Method: L'activité anticalcique a été déterminée in vitro sur deux modèles expérimentaux.
Sur oreillette gauche de cobaye stimulée électriquement à 150 battements/mn dans une solution de Tyrode pauvre en calcium (0,6 mM), les COR3789, COR3792, COR4009, COR4010 et COR4011 employés respectivement à 25, 100, 50, 10 et 25 microg/ml inhibent de 50% l'augmentation de la force de contraction induite par l'addition de 0,6 mM de calcium.

[15] = first experiment, 10 mg/kg, 6 hours
[16] = first experiment, 20 mg/kg, 6 hours
[17] = first experiment, 40 mg/kg, 6 hours

CNC(C)=C1C(=O)c2ccccc2C1=O [COR3760, (Méthylamino-1 éthylidène)-2 indanedione-1,3]
ptosis coté (souris [1]): 4
mortalité (souris [2]): 80%
augmentation de l'excrétion urinaire volumétrique mesurée à la sixième heure ([3]; 10 mg/kg): 49%
augmentation de l'excrétion urinaire volumétrique mesurée à la sixième heure ([3]; 20 mg/kg): 119%
augmentation de l'excrétion urinaire volumétrique mesurée à la sixième heure ([3]; 40 mg/kg): 134%
augmentation de l'excrétion urinaire volumétrique mesurée à la sixième heure ([4]; 10 mg/kg): 28%
augmentation de l'excrétion urinaire volumétrique mesurée à la sixième heure ([4]; 20 mg/kg): 84%
augmentation de l'excrétion urinaire volumétrique mesurée à la sixième heure ([4]; 40 mg/kg): 116%
rapport Na/K ([5]; first experiment, 10 mg/kg (controls 0,56)): 0,4
variation de l'excrétion urinaire volumétrique [5, 15]: +17%
variation du potassium excrété [5, 15]: +165%
variation du sodium excrété [5, 15]: +102%
rapport Na/K ([5]; first experiment, 20 mg/kg (controls 0,56)): 0,49
variation de l'excrétion urinaire volumétrique [5, 16]: +19%
variation du potassium excrété [5, 16]: +180%
variation du sodium excrété [5, 16]: +147%
variation de l'excrétion urinaire volumétrique [5, 17]: +36%
variation du potassium excrété [5, 17]: +239%
variation du sodium excrété [5, 17]: +415%
facteur multipliant l'excrétion sodique ([5]; 10 mg/kg): 2,3
response vs control in vivo at 20 mg/kg ([5]; 20 mg/kg): 290%
variation de l'excrétion urinaire volumétrique ([5]; second experiment, 40 mg/kg): +19%
variation du potassium excrété ([5]; second experiment, 40 mg/kg): +70%
variation du sodium excrété ([5]; second experiment, 40 mg/kg): +157%
rapport Na/K ([5]; second experiment, 40 mg/kg (controls 0,59)): 0,88
variation de l'excrétion urinaire volumétrique ([5]; second experiment, 60 mg/kg): +19%
variation du potassium excrété ([5]; second experiment, 60 mg/kg): +90%
variation du sodium excrété ([5]; second experiment, 60 mg/kg): +319%
rapport Na/K ([5]; second experiment, 60 mg/kg (controls 0,59)): 1,15
variation de l'excrétion urinaire volumétrique ([5]; second experiment, 80 mg/kg): +29%
variation du potassium excrété ([5]; second experiment, 80 mg/kg): +77%
variation du sodium excrété ([5]; second experiment, 80 mg/kg): +472%
rapport Na/K ([5]; second experiment, 80 mg/kg (controls 0,59)): 1,88
IC80 [6]: 50 mg/L (≈ 248 µM)
mortalité (souris [7]; intraperitoneal, 200 mg/kg): aucune mortalité
mortalité (souris [7]; oral, 300 mg/kg): aucune mortalité
LD50 [8]: 736 mg/kg
EC50 [9]: 50 mg/L (≈ 248 µM)

COCCNC(C)=C1C(=O)c2ccccc2C1=O [COR4009, ((Méthoxy-2 éthyl) amino-1 éthylidényl)-2 indanedione-1,3]
réduction de pression ([10]; 2 hours after administration): 8%
réduction de pression ([10]; 4 hours after administration): 13%
réduction de pression ([10]; 6 hours after administration): 13%
inhibition des convulsions induites par la bicuculline (souris [11]; first bicuculline injection (30 min later)): inhibe les convulsions induites par la première injection
inhibition des convulsions induites par la bicuculline (souris [11]; second bicuculline injection (5 hours later)): sans inhiber celles induites par la deuxième
response vs control in vivo at 20 mg/kg ([5]; 20 mg/kg): 350%
mortalité (souris [7]; intraperitoneal, 200 mg/kg): aucune mortalité
mortalité (souris [7]; oral, 300 mg/kg): aucune mortalité
change in vivo at 20 mg/kg ([12]; 6 h, read-out: augmentation de l'excrétion urinaire volumétrique mesurée au bout de 6 heures): 65%
change in vivo at 20 mg/kg ([12]; read-out: augmentation de l'excrétion urinaire du sodium): 42%
prévention des convulsions induites par des électrochocs d'intensité maximale (souris [13]): on n'observe plus de convulsions
IC50 [14]: 50 mg/L (≈ 204 µM)
